Source: ChEMBL document CHEMBL1201862, “PubChem BioAssay data set” (2004)
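Where inhibition never reached the appropriate level, the endpoint shown equals the highest concentration tested. Otherwise, values were interpolated linearly from a five-concentration, 48-hour dose response in 96-well plates. GI50 marks 50% less growth.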 The source made the active and inactive calls. No stated cut-off is given here; in the data, active = GI50 up to about 1.1 µM and inactive = higher.

Assays:
Assay in all cases: DTP human tumour cell line panel, 48 h
NCI-H23 = tested on: NCI-H23
A498 = tested on: A498
CCRF-CEM = tested on: CCRF-CEM
DMS-114 = tested on: DMS-114
DMS-273 = tested on: DMS-273
TK-10 = tested on: TK-10
CAKI-1 = tested on: CAKI-1
HT-29 = tested on: HT-29
SK-MEL-2 = tested on: SK-MEL-2
NCI-H226 = tested on: NCI-H226
RPMI-8226 = tested on: RPMI-8226
COLO 205 = tested on: COLO 205
K562 = tested on: K562
KM12 = tested on: KM12
MDA-MB-435 = tested on: MDA-MB-435
HCC 2998 = tested on: HCC 2998
HCT-116 = tested on: HCT-116
SK-OV-3 = tested on: SK-OV-3
MOLT-4 = tested on: MOLT-4
HOP-62 = tested on: HOP-62

SMILES	GI50 (NCI-H23)	GI50 (A498)	GI50 (CCRF-CEM)	GI50 (DMS-114)	GI50 (DMS-273)	GI50 (TK-10)	GI50 (CAKI-1)	GI50 (HT-29)	GI50 (SK-MEL-2)	GI50 (NCI-H226)	GI50 (RPMI-8226)	GI50 (COLO 205)	GI50 (K562)	GI50 (KM12)	GI50 (MDA-MB-435)	GI50 (HCC 2998)	GI50 (HCT-116)	GI50 (SK-OV-3)	GI50 (MOLT-4)	GI50 (HOP-62)
O=C1c2cccc(NCCNCCO)c2C(=O)c2cccc(NCCNCCO)c21	1.87 µM (inactive)	2.48 µM (inactive)	0.267 µM (active)	0.368 µM (active)	2.91 µM (inactive)	3.73 µM (inactive)	0.64 µM (active)	0.52 µM (active)	1.28 µM (inactive)	0.998 µM (active)	1.2 µM (inactive)	0.661 µM (active)	1.12 µM (active)	0.792 µM (active)	1.25 µM (inactive)	0.802 µM (active)	0.43 µM (active)	2.26 µM (inactive)	0.443 µM (active)	1.29 µM (inactive)
COC(=O)C1(O)CC(=O)CCC1c1ccc(OC)cc1 (configuration not stated)	> 100 µM (inactive)	> 100 µM (inactive)	> 100 µM (inactive)	> 100 µM (inactive)	> 100 µM (inactive)	> 100 µM (inactive)	> 100 µM (inactive)	> 100 µM (inactive)	> 100 µM (inactive)	> 100 µM (inactive)	> 100 µM (inactive)	> 100 µM (inactive)	> 100 µM (inactive)	> 100 µM (inactive)		> 100 µM (inactive)	> 100 µM (inactive)	> 100 µM (inactive)	> 100 µM (inactive)	> 100 µM (inactive)
O[C@H]1[C@H](O)[C@@H](O)CN2CC[C@H](O)[C@H]12 [CASTANOSPERMINE]	> 100 µM (inactive)	> 100 µM (inactive)	> 100 µM (inactive)	> 100 µM (inactive)	> 100 µM (inactive)		> 100 µM (inactive)	> 100 µM (inactive)	99.3 µM (inactive)	> 100 µM (inactive)	> 100 µM (inactive)	> 100 µM (inactive)	> 100 µM (inactive)	> 100 µM (inactive)		> 95.5 µM (inactive)	> 100 µM (inactive)	> 100 µM (inactive)	> 100 µM (inactive)	> 100 µM (inactive)
CCC(C(=O)O)c1ccc(OCc2ccccc2)cc1 (configuration not stated)	> 100 µM (inactive)	> 100 µM (inactive)	> 100 µM (inactive)	> 100 µM (inactive)	> 100 µM (inactive)	> 100 µM (inactive)	> 100 µM (inactive)	> 100 µM (inactive)	> 100 µM (inactive)	> 100 µM (inactive)	> 100 µM (inactive)	> 100 µM (inactive)	> 100 µM (inactive)	> 100 µM (inactive)		> 100 µM (inactive)	> 100 µM (inactive)	> 100 µM (inactive)	> 100 µM (inactive)	> 100 µM (inactive)
O=C1NC(=S)NC(=O)C1=C(O)Nc1ccccc1	26.3 µM (inactive)	28.6 µM (inactive)	16.4 µM (inactive)	25.8 µM (inactive)	28.7 µM (inactive)	53.6 µM (inactive)	20.8 µM (inactive)	47.4 µM (inactive)	35.9 µM (inactive)	30.5 µM (inactive)	27.4 µM (inactive)	27.4 µM (inactive)	27.7 µM (inactive)	36.6 µM (inactive)	7.98 µM (inactive)	42.8 µM (inactive)	29.1 µM (inactive)	38.9 µM (inactive)	10.3 µM (inactive)	23.2 µM (inactive)
CC1=C(C(=O)Nc2c(C)cccc2C)C(c2ccccc2Cl)C(C(=O)Nc2c(C)cccc2C)=C(C)N1	> 100 µM (inactive)	> 100 µM (inactive)	> 100 µM (inactive)	> 100 µM (inactive)	> 100 µM (inactive)	> 100 µM (inactive)	> 100 µM (inactive)	> 100 µM (inactive)	> 100 µM (inactive)	> 100 µM (inactive)	> 100 µM (inactive)	> 100 µM (inactive)	> 100 µM (inactive)	> 100 µM (inactive)		> 100 µM (inactive)		> 100 µM (inactive)	> 100 µM (inactive)	> 100 µM (inactive)
CC12CCCCC1(C)C2Sc1ccccc1 (configuration not stated)	52.6 µM (inactive)	> 50.4 µM (inactive)	19.7 µM (inactive)	30.7 µM (inactive)	47.2 µM (inactive)	> 100 µM (inactive)	> 56.1 µM (inactive)	37.2 µM (inactive)	23.4 µM (inactive)	54.3 µM (inactive)	18.4 µM (inactive)	> 65.3 µM (inactive)	13.5 µM (inactive)	49.3 µM (inactive)		31.4 µM (inactive)	38.1 µM (inactive)	> 100 µM (inactive)	19.1 µM (inactive)	> 100 µM (inactive)
CCCCNC(=O)C1C(=O)N(CCCC)C(=O)/C1=N\N (configuration not stated)	> 100 µM (inactive)	> 100 µM (inactive)		> 100 µM (inactive)	> 100 µM (inactive)	> 100 µM (inactive)	> 100 µM (inactive)	> 100 µM (inactive)	> 100 µM (inactive)	> 100 µM (inactive)	> 100 µM (inactive)	> 100 µM (inactive)	> 100 µM (inactive)	> 100 µM (inactive)		> 100 µM (inactive)	> 100 µM (inactive)	> 100 µM (inactive)	> 100 µM (inactive)	> 100 µM (inactive)
Cc1cc2ncn(-c3nc4ccccc4nc3C(C#N)S(C)(=O)=O)c2cc1C (configuration not stated)	> 100 µM (inactive)	19.7 µM (inactive)	> 100 µM (inactive)	> 100 µM (inactive)	> 100 µM (inactive)	> 100 µM (inactive)	> 100 µM (inactive)		> 100 µM (inactive)	13.4 µM (inactive)	> 100 µM (inactive)	> 100 µM (inactive)	> 100 µM (inactive)	> 100 µM (inactive)		> 100 µM (inactive)	> 100 µM (inactive)	0.946 µM (active)	> 100 µM (inactive)	> 100 µM (inactive)
O=C1/C(=C\c2ccccc2)CN(C(=O)CCN2CCCCC2)C/C1=C/c1ccccc1	1.89 µM (inactive)	2.69 µM (inactive)	0.198 µM (active)	1.23 µM (inactive)	1.44 µM (inactive)	3.93 µM (inactive)	1.71 µM (inactive)	0.443 µM (active)	2 µM (inactive)	6.11 µM (inactive)	0.0832 µM (active)	1.76 µM (inactive)	0.179 µM (active)	0.379 µM (active)	2.05 µM (inactive)	1.44 µM (inactive)	0.254 µM (active)	4.01 µM (inactive)	0.231 µM (active)	12.9 µM (inactive)
O=C(c1ccccc1)c1ccc2c(c1)N=C(c1ccc(Cl)c(Cl)c1)CC(c1ccc3ccccc3c1)N2 (configuration not stated)	> 100 µM (inactive)	> 100 µM (inactive)	67.6 µM (inactive)	> 100 µM (inactive)	> 100 µM (inactive)	> 100 µM (inactive)	> 100 µM (inactive)	> 100 µM (inactive)	> 100 µM (inactive)	> 100 µM (inactive)	99.8 µM (inactive)	> 100 µM (inactive)	> 100 µM (inactive)	> 100 µM (inactive)		> 100 µM (inactive)	> 100 µM (inactive)	> 100 µM (inactive)	> 100 µM (inactive)	> 100 µM (inactive)
CN(C)CCCn1c2c3ccccc3ccc2c2oc(=O)c3ccccc3c21	6.82 µM (inactive)	13.3 µM (inactive)	3.31 µM (inactive)	1.77 µM (inactive)	1.49 µM (inactive)	14.2 µM (inactive)	7.76 µM (inactive)	5.53 µM (inactive)	9.23 µM (inactive)	> 35.2 µM (inactive)	4.63 µM (inactive)	2.48 µM (inactive)	2.45 µM (inactive)	3.83 µM (inactive)		1.22 µM (inactive)	2.48 µM (inactive)	14.8 µM (inactive)	0.986 µM (active)	5.7 µM (inactive)
C=CCCC1(C)CCCNC1=S (configuration not stated)	> 100 µM (inactive)	> 100 µM (inactive)	17.7 µM (inactive)	> 100 µM (inactive)	> 100 µM (inactive)	> 100 µM (inactive)		> 100 µM (inactive)	> 100 µM (inactive)	> 100 µM (inactive)	> 100 µM (inactive)	37.7 µM (inactive)	> 100 µM (inactive)	> 100 µM (inactive)		> 100 µM (inactive)	> 100 µM (inactive)	> 100 µM (inactive)	> 100 µM (inactive)	> 100 µM (inactive)
COc1ccc2[nH]c(=O)cc(C)c2c1[N+](=O)[O-]	> 100 µM (inactive)	54.8 µM (inactive)	> 100 µM (inactive)	> 100 µM (inactive)	> 100 µM (inactive)	> 100 µM (inactive)	31.7 µM (inactive)	> 100 µM (inactive)	> 100 µM (inactive)	> 100 µM (inactive)	> 100 µM (inactive)	> 100 µM (inactive)	> 100 µM (inactive)	> 100 µM (inactive)		> 100 µM (inactive)	> 100 µM (inactive)	> 100 µM (inactive)	> 100 µM (inactive)	> 100 µM (inactive)
Cn1c(-c2ccccc2)cc(-c2cccs2)c1-c1cccs1	49.3 µM (inactive)	> 100 µM (inactive)	18.2 µM (inactive)	> 52 µM (inactive)	> 100 µM (inactive)		> 100 µM (inactive)	51.2 µM (inactive)	> 100 µM (inactive)	> 100 µM (inactive)	73.3 µM (inactive)	82.6 µM (inactive)	51.6 µM (inactive)	22.3 µM (inactive)		49.5 µM (inactive)	> 100 µM (inactive)	> 100 µM (inactive)	48.9 µM (inactive)	> 81.3 µM (inactive)
